ChEMBL document CHEMBL5550092, “Synthesis and biological evaluation of triazolones/oxadiazolones as novel urease inhibitors” (Bioorg Med Chem, 2024)
Activity calls are given as the source filed them. The calls are words filed in the database; no cut-off is given here.

Assays:
[1] = biological target: Urease subunit alpha/Urease subunit beta (Helicobacter pylori (strain ATCC 700392 / 26695) (Campylobacterpylori), UniProt P69996); assay: (§1) Inhibition of Helicobacter pylori urease using urea as substrate assessed as decrease in ammonia production incubated for 0.5 hrs by indole phenol method; format: protein-complex assay
Sequence of Urease subunit alpha/Urease subunit beta (P69996 whole entry): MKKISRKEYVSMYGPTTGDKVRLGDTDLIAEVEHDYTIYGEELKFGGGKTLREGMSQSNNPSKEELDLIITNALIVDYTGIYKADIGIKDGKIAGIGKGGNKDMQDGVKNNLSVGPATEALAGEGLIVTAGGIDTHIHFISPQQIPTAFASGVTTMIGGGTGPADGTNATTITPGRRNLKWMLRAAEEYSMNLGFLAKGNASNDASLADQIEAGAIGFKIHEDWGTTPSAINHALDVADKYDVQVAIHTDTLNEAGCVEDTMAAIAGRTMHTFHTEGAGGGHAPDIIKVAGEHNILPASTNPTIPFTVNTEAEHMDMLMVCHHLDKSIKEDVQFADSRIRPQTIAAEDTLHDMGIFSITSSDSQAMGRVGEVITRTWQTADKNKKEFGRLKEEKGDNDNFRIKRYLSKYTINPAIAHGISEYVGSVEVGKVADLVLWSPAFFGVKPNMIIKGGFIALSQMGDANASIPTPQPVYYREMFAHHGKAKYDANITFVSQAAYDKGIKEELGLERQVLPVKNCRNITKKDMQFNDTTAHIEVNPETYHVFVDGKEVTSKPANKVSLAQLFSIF
Sequence of Urease subunit alpha/Urease subunit beta (P14916 whole entry, further chain): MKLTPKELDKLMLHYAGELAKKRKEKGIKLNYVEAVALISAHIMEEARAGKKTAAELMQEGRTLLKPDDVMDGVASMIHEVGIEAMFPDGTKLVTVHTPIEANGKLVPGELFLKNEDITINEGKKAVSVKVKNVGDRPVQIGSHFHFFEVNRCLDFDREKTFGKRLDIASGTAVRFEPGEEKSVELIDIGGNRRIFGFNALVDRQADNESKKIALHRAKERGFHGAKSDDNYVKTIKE

[2] = Cytotoxicity against human K562 cells assessed as cell viability at 250 ug/ml incubated for 72 hrs by CCK8 assay relative to control; format: toxicity, cell-based; conditions: at 250 µg/mL, read-out: Activity
[3] = Cytotoxicity against human L02 cells assessed as cell viability at 250 ug/ml incubated for 72 hrs by CCK8 assay relative to control; format: toxicity, cell-based; conditions: at 250 µg/mL, read-out: Activity
[4] = Cytotoxicity against human HepG2 cells assessed as cell viability at 250 ug/ml incubated for 72 hrs by CCK8 assay relative to control; format: toxicity, cell-based; conditions: at 250 µg/mL, read-out: Activity
[5] = Cytotoxicity against human SGC-7901 cells assessed as cell viability at 250 ug/ml incubated for 72 hrs by CCK8 assay relative to control; format: toxicity, cell-based; conditions: at 250 µg/mL, read-out: Activity
[6] = biological target: T1, Urease subunit alpha/Urease subunit beta (Helicobacter pylori (strain ATCC 700392 / 26695) (Campylobacterpylori)) (UniProt P69996+P14916); assay: as §1; format: protein-complex assay
T1 sequence (P14916 whole entry, looked up): as the sequence (P14916 whole entry, further chain) above
T1 sequence (P69996 whole entry, looked up): as the sequence (P69996 whole entry) above

[7] = biological target: T1, Urease subunit alpha/Urease subunit beta (Helicobacter pylori (strain ATCC 700392 / 26695) (Campylobacterpylori)); assay: Inhibition of urease using urea as substrate assessed as decrease in ammonia production at 800 ug/ml by indole phenol method; format: protein-complex assay; conditions: dose 800.0 µg/ml, time <= 120.0 min
[8] = biological target: T1, Urease subunit alpha/Urease subunit beta (Helicobacter pylori (strain ATCC 700392 / 26695) (Campylobacterpylori)); assay: Inhibition of urease using urea as substrate assessed as decrease in ammonia production at 800 ug/ml preincubated for 100 min by indole phenol method; format: protein-complex assay; conditions: dose 800.0 µg/ml

CCc1cccc(N2CC(c3n[nH]c(=O)o3)OC2=O)c1 (configuration not stated)
IC50 [1]: 151 µM

CCc1cccc(N2CC(Cc3n[nH]c(=O)o3)OC2=O)c1 (configuration not stated)
viability at 72 h, 250 ug/ml [2]: 95.3% | IC50 [1]: 22.1 µM | viability at 72 h, 250 ug/ml [3]: 98.7% | viability at 72 h, 250 ug/ml [4]: 93.1% | viability at 72 h, 250 ug/ml [5]: 89.3%

CCc1cccc(NCC(O)c2n[nH]c(=O)[nH]2)c1 (configuration not stated)
IC50 [1]: 90.5 µM

O=c1[nH]nc(C(O)CNc2ccccc2)[nH]1 (configuration not stated)
IC50 [1]: 85.2 µM

Cc1cc(C)cc(N2CC(c3n[nH]c(=O)o3)OC2=O)c1 (configuration not stated)
inhibition [6]: inactive

Cc1ccccc1NCC(O)c1n[nH]c(=O)[nH]1 (configuration not stated)
IC50 [1]: 93.5 µM

Cc1cc(C)cc(NCC(O)c2n[nH]c(=O)[nH]2)c1 (configuration not stated)
IC50 [1]: 30.7 µM

Cc1cccc(NCC(O)c2n[nH]c(=O)[nH]2)c1 (configuration not stated)
IC50 [1]: 108 µM

Cc1cc(C)cc(N2CC(Cc3n[nH]c(=O)o3)OC2=O)c1 (configuration not stated)
viability at 72 h, 250 ug/ml [2]: 92.7% | IC50 [1]: 10.1 µM | Ki [1]: 6.75 µM | viability at 72 h, 250 ug/ml [3]: 98% | viability at 72 h, 250 ug/ml [4]: 90.8% | viability at 72 h, 250 ug/ml [5]: 92.5%

CCOc1ccc(NCC(O)c2n[nH]c(=O)[nH]2)cc1 (configuration not stated)
IC50 [1]: 46.8 µM

Cc1ccc(NCC(O)c2n[nH]c(=O)[nH]2)c(C)c1 (configuration not stated)
IC50 [1]: 87.5 µM

O=C1OC(c2n[nH]c(=O)o2)CN1c1ccccc1 (configuration not stated)
inhibition [6]: inactive

O=C1OC(Cc2n[nH]c(=O)o2)CN1c1ccccc1 (configuration not stated)
IC50 [1]: 65.2 µM

Cc1cccc(N2CC(c3n[nH]c(=O)o3)OC2=O)c1 (configuration not stated)
inhibition [6]: inactive

CCc1ccccc1N1CC(c2n[nH]c(=O)o2)OC1=O (configuration not stated)
IC50 [1]: 102 µM

CCOc1ccc(N2CC(c3n[nH]c(=O)o3)OC2=O)cc1 (configuration not stated)
IC50 [1]: 116 µM

CC(C)c1ccc(NCC(O)c2n[nH]c(=O)[nH]2)cc1 (configuration not stated)
IC50 [1]: 51.4 µM

Cc1ccc(N2CC(c3n[nH]c(=O)o3)OC2=O)c(C)c1 (configuration not stated)
IC50 [1]: 98.7 µM

COc1cccc(NCC(O)c2n[nH]c(=O)[nH]2)c1 (configuration not stated)
inhibition [6]: inactive

CC(C)(C)c1ccc(NCC(O)c2n[nH]c(=O)[nH]2)cc1 (configuration not stated)
IC50 [1]: 40.2 µM

O=c1[nH]nc(C(O)CNc2cccc(OCc3ccccc3)c2)[nH]1 (configuration not stated)
viability at 72 h, 250 ug/ml [2]: 91.6% | IC50 [1]: 6.31 µM | Ki [1]: 2.24 µM | viability at 72 h, 250 ug/ml [3]: 95.4% | viability at 72 h, 250 ug/ml [4]: 90.3% | viability at 72 h, 250 ug/ml [5]: 93.4%

COc1ccc(NCC(O)c2n[nH]c(=O)[nH]2)cc1 (configuration not stated)
inhibition [6]: inactive

O=c1[nH]nc(C(O)CNc2ccc(OCc3ccccc3)cc2)[nH]1 (configuration not stated)
viability at 72 h, 250 ug/ml [2]: 89.8% | IC50 [1]: 21.2 µM | viability at 72 h, 250 ug/ml [3]: 94.7% | viability at 72 h, 250 ug/ml [4]: 89.3% | viability at 72 h, 250 ug/ml [5]: 94.2%

Cc1ccccc1N1CC(c2n[nH]c(=O)o2)OC1=O (configuration not stated)
IC50 [1]: 186 µM

Cc1ccc(N2CC(c3n[nH]c(=O)o3)OC2=O)cc1 (configuration not stated)
inhibition [6]: inactive

COc1ccc(N2CC(Cc3n[nH]c(=O)o3)OC2=O)cc1 (configuration not stated)
inhibition [6]: inactive

CC(C)(C)c1ccc(N2CC(Cc3n[nH]c(=O)o3)OC2=O)cc1 (configuration not stated)
IC50 [1]: 56.8 µM

Cc1ccc(N2CC(Cc3n[nH]c(=O)o3)OC2=O)cc1C (configuration not stated)
inhibition [6]: inactive

CCc1ccc(NCC(O)c2n[nH]c(=O)[nH]2)cc1 (configuration not stated)
IC50 [1]: 110 µM

O=C1OC(Cc2n[nH]c(=O)o2)CN1c1cccc(OCc2ccccc2)c1 (configuration not stated)
viability at 72 h, 250 ug/ml [2]: 90.5% | IC50 [1]: 19.1 µM | viability at 72 h, 250 ug/ml [3]: 94.9% | viability at 72 h, 250 ug/ml [4]: 94.2% | viability at 72 h, 250 ug/ml [5]: 90.2%

CCOc1ccccc1NCC(O)c1n[nH]c(=O)[nH]1 (configuration not stated)
IC50 [1]: 38.8 µM

CCc1ccccc1NCC(O)c1n[nH]c(=O)[nH]1 (configuration not stated)
IC50 [1]: 62.6 µM

O=C1OC(c2n[nH]c(=O)o2)CN1c1ccc(OCc2ccccc2)cc1 (configuration not stated)
IC50 [1]: 73.1 µM

Cc1ccc(N2CC(Cc3n[nH]c(=O)o3)OC2=O)cc1 (configuration not stated)
inhibition [6]: inactive

CC(C)c1ccc(N2CC(Cc3n[nH]c(=O)o3)OC2=O)cc1 (configuration not stated)
viability at 72 h, 250 ug/ml [2]: 88.9% | IC50 [1]: 24.6 µM | viability at 72 h, 250 ug/ml [3]: 96.2% | viability at 72 h, 250 ug/ml [4]: 89.3% | viability at 72 h, 250 ug/ml [5]: 90.7%

O=C1OC(Cc2n[nH]c(=O)o2)CN1c1ccc(OCc2ccccc2)cc1 (configuration not stated)
IC50 [1]: 45.7 µM

CCc1ccc(N2CC(Cc3n[nH]c(=O)o3)OC2=O)cc1 (configuration not stated)
IC50 [1]: 46.1 µM

O=C1OC(Cc2n[nH]c(=O)o2)CN1c1ccccc1OCc1ccccc1 (configuration not stated)
viability at 72 h, 250 ug/ml [2]: 93.8% | IC50 [1]: 1.21 µM | Ki [1]: 0.24 µM | inhibition [7]: Dose-Dependent Effect | viability at 72 h, 250 ug/ml [3]: 96.5% | viability at 72 h, 250 ug/ml [4]: 91.5% | inhibition [8]: Active | viability at 72 h, 250 ug/ml [5]: 94.6%

Cc1cccc(N2CC(Cc3n[nH]c(=O)o3)OC2=O)c1 (configuration not stated)
IC50 [1]: 30.6 µM

CCOc1ccc(N2CC(Cc3n[nH]c(=O)o3)OC2=O)cc1 (configuration not stated)
IC50 [1]: 61.3 µM

COc1cccc(N2CC(c3n[nH]c(=O)o3)OC2=O)c1 (configuration not stated)
IC50 [1]: 108 µM

O=C1OC(c2n[nH]c(=O)o2)CN1c1cccc(OCc2ccccc2)c1 (configuration not stated)
viability at 72 h, 250 ug/ml [2]: 90.7% | IC50 [1]: 20.7 µM | viability at 72 h, 250 ug/ml [3]: 98.8% | viability at 72 h, 250 ug/ml [4]: 92.4% | viability at 72 h, 250 ug/ml [5]: 87.6%

CCc1ccc(N2CC(c3n[nH]c(=O)o3)OC2=O)cc1 (configuration not stated)
IC50 [1]: 162 µM

Cc1ccc(NCC(O)c2n[nH]c(=O)[nH]2)cc1 (configuration not stated)
inhibition [6]: inactive

COc1ccc(N2CC(c3n[nH]c(=O)o3)OC2=O)cc1 (configuration not stated)
inhibition [6]: inactive
